Measured values from patent publication US20240059698A1 (Accutar Biotechnology Inc., priority 2022, published 2024).
Read-outs that look alike come from different tables or passages of the source.

How the values were obtained:
Format in all cases: cell-based
HCC827 cells = test: Cell growth inhibition (CellTiter-Glo), HCC827; details: Homo sapiens, 72 h, 3 days
How it was run: (§1)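 HCC827 cells in RPMI and A431 cells in DMEM (both 10% FBS) were seeded at 5000 cells/well and left overnight. They were then exposed to compound dilutions for 3 days at 37° C. Viability was read by CellTiter-Glo luminescence.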

[1] = test system: HCC827-SVD cells (human EGFR exon 20 insertion mutant D770_N771insSVD); test: Cell growth inhibition (CellTiter-Glo), HCC827-SVD; details: 72 h, 3 days
How it was run: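 HCC827 cells with endogenous EGFR knocked out and lentivirally expressing the insertion mutant (single clone) were seeded at 5000 cells/well in RPMI with 10% FBS. After overnight, compounds added; 3 days at 37 °C, then CellTiter-Glo luminescence.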

[2] = test system: HCC827-YVMA cells (human ERBB2 exon20 insertion mutant A775_G776ins YVMA); test: Cell growth inhibition (CellTiter-Glo), HCC827-YVMA; details: 72 h, read-out: Cell growth inhibition, GI50 (nM) HCC827-YVMA
How it was run: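 HCC827 cells transduced with lentiviral codon-optimized mutant (ERBB2 A775_G776insYVMA or EGFR V769_D770insASV), endogenous EGFR knocked out by CRISPR, single clone selected. Cells seeded overnight in RPMI/10% FBS, then exposed to serially diluted compounds at 37 °C for 3 days; viability read by CellTiter-Glo luminescence.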

A431 cells = test: Cell growth inhibition (CellTiter-Glo), A431; details: Homo sapiens, A-431, 72 h, 3 days
How it was run: as §1

[3] = test system: HCC827-ASV cells (human EGFR exon 20 insertion mutant V769_D770insASV); test: Cell growth inhibition (CellTiter-Glo), HCC827-ASV; details: 72 h, read-out: Cell growth inhibition, GI50 (nM) HCC827-ASV
Method: Generation of HCC827-SVD, HCC827-ASV, and HCC827-YVMA cell lines. The HCC827-SVD cell line was generated by first transducing HCC827 cells (ATCC) with lentiviral particles expressing codon-optimized human EGFR exon 20 insertion mutant D770_N771insSVD, and then selecting under 5 µg/mL puromycin treatment for a week. The resulting cells were further transduced with lentiviral particles carrying EGFR sgRNA and CAS9 to knockout the endogenous alleles of EGER and then selected under 500 µg/mL hygromycin B treatment for two weeks. The limiting dilution approach was used to subsequently generate the single clone of the HCC827-SVD stable cell line. Endogenous EGFR knockout was confirmed by Sanger sequencing of cell genomic DNA, and expression of exogenous mutant EGFR was verified by Western blot analysis.
HCC827-ASV and HCC827-YVMA cell lines were generated in a similar approach as HCC827-SVD, except that HCC827 cells (ATCC) were first transduced with lentiviral particles expressing codon-optimized human EGFR exon 20 insertion mutant V769_D770insASV and human ERBB2 exon20 insertion mutant A775_G776ins YVMA, respectively.
2. Cell Growth Inhibition for HCC827, HCC827-SVD, HCC827-ASV, HCC827-YVMA, and A431.
HCC827(ATCC), HCC827-SVD, HCC827-ASV, and HCC827-YVMA cells were seeded in 96-well plates at 5000 cells/well in 90 μL of RPMI growth medium containing 10% FBS and 1% Penicillin Streptomycin. A431 (ATCC) cells were seeded in 96-well plates at 5000 cells/well in 90 μL of DMEM growth medium containing 10% FBS and 1% Penicillin Streptomycin. Cells were incubated at 37° C. overnight and then administered with 10 μL 10× test compounds prepared in the growth medium at various concentrations. After administration of the compounds, cells were incubated at 37° C. for 3 days. Before the CellTiter-Glo assay, the plates were equilibrated at room temperature for approximately 30 minutes. 100 ul of CellTiter-Glo reagent (Promega) was added to each well. The plates were then incubated at room temperature for 10 minutes and luminescence was recorded by the EnSight® multimode plate reader (PerkinElmer). Table 7 listed selected compounds in cellular growth assay.

[4] = HCC827-YVMA cells, 3 days, CellTiter-Glo
[5] = HCC827-ASV cells, 3 days, CellTiter-Glo

| Structure (SMILES) | GI50 (HCC827 cells) | GI50 [1] | GI50 [2, 4] | GI50 (A431 cells) | GI50 [3, 5] | GI50 [3] | GI50 [2] |
| --- | --- | --- | --- | --- | --- | --- | --- |
| C=CC(=O)N1CCC(c2ccn3ncnc(Nc4ccc(Oc5ccnc(N6CC7C(C6)C7(F)F)c5)cc4F)c23)CC1 (stereo not drawn) [Compound 200, 1-(4-(4-((4-((2-(6,6-difluoro-3-azabicyclo[3.1.0]hexan-3-yl)pyridin-4-yl)oxy)-2-fluorophenyl)amino)pyrrolo[2,1-f][1,2,4]triazin-5-yl)piperidin-1-yl)prop-2-en-1-one] | 200 to 1000 nM | 50 to 200 nM | 50 to 200 nM | > 1000 nM |  |  |  |
| C=CC(=O)N1CCC(c2ccn3ncnc(Nc4ccc(Oc5ccnc(N6CC(C)(OC)C6)c5)cc4F)c23)CC1 [Compound 203, 1-(4-(4-((2-fluoro-4-((2-(3-methoxy-3-methylazetidin-1-yl)pyridin-4-yl)oxy)phenyl)amino)pyrrolo[2,1-f][1,2,4]triazin-5-yl)piperidin-1-yl)prop-2-en-1-one] | > 1000 nM | 200 to 1000 nM | 50 to 200 nM | > 1000 nM |  |  |  |
| C=CC(=O)N1CCC(c2ccn3ncnc(Nc4ccc(Oc5ccnc(N6CCC(C#N)C6)c5)cc4F)c23)CC1 (stereo not drawn) [Compound 204, 1-(4-(4-((5-(1-acryloylpiperidin-4-yl)pyrrolo[2,1-f][1,2,4]triazin-4-yl)amino)-3-fluorophenoxy)pyridin-2-yl)pyrrolidine-3-carbonitrile] | > 1000 nM | 50 to 200 nM | 50 to 200 nM | > 1000 nM |  |  |  |
| C=CC(=O)N1CCC(c2ccn3ncnc(Nc4ccc(Oc5ccnc(N6CC7(CCOCC7)C6)c5)cc4F)c23)CC1 [Compound 205, 1-(4-(4-((4-((2-(7-oxa-2-azaspiro[3.5]nonan-2-yl)pyridin-4-yl)oxy)-2-fluorophenyl)amino)pyrrolo[2,1-f][1,2,4]triazin-5-yl)piperidin-1-yl)prop-2-en-1-one] | > 1000 nM | 200 to 1000 nM | 50 to 200 nM | > 1000 nM |  |  |  |
| C=CC(=O)N1CCC(c2ccn3ncnc(Nc4ccc(Oc5nc(-c6cnc(C)c(F)c6)cs5)cc4F)c23)CC1 [Compound 206, 1-[4-[4-[2-fluoro-4-[4-(5-fluoro-6-methyl-3-pyridyl)thiazol-2-yl]oxy-anilino]pyrrolo[2,1-f][1,2,4]triazin-5-yl]-1-piperidyl]prop-2-en-1-one] | > 1000 nM | 200 to 1000 nM | 50 to 200 nM | > 1000 nM |  |  |  |
| C=CC(=O)N1CCC(c2ccn3ncnc(Nc4ccc(Oc5nc(-c6ccnn6C)cs5)cc4F)c23)CC1 [Compound 207, 1-(4-(4-((2-fluoro-4-((4-(1-methyl-1H-pyrazol-5-yl)thiazol-2-yl)oxy)phenyl)amino)pyrrolo[2,1-f][1,2,4]triazin-5-yl)piperidin-1-yl)prop-2-en-1-one] | > 1000 nM | 200 to 1000 nM | 50 to 200 nM | > 1000 nM |  |  |  |
| C=CC(=O)N1CCC(c2c[nH]c3ncnc(Nc4ccc(OCc5cscn5)c(Cl)c4F)c23)CC1 [Compound 216, 1-(4-(4-((3-chloro-2-fluoro-4-(thiazol-4-ylmethoxy)phenyl)amino)-7H-pyrrolo[2,3-d]pyrimidin-5-yl)piperidin-1-yl)prop-2-en-1-one] |  | < 50 nM | < 50 nM |  | < 50 nM |  |  |
| C=CC(=O)N1CCC(c2c[nH]c3ncnc(Nc4ccc(OCc5csc(C)n5)c(Cl)c4)c23)CC1 [Compound 217, 1-(4-(4-((3-chloro-4-((2-methylthiazol-4-yl)methoxy)phenyl)amino)-7H-pyrrolo[2,3-d]pyrimidin-5-yl)piperidin-1-yl)prop-2-en-1-one] |  | < 50 nM | < 50 nM |  | < 50 nM |  |  |
| C=CC(=O)N1CCC(c2c[nH]c3ncnc(Nc4ccc(OCc5cc6sccc6cn5)c(Cl)c4)c23)CC1 [Compound 224, 1-(4-(4-((3-chloro-4-(thieno[3,2-c]pyridin-6-ylmethoxy)phenyl)amino)-7H-pyrrolo[2,3-d]pyrimidin-5-yl)piperidin-1-yl)prop-2-en-1-one] |  | < 50 nM |  |  |  | < 50 nM | < 50 nM |

Further lines, with some results ahead:

| GI50 (HCC827 cells) | GI50 [1] | GI50 [2, 4] | GI50 (A431 cells) | GI50 [3, 5] | Structure (SMILES) | GI50 [3] | GI50 [2] |
| --- | --- | --- | --- | --- | --- | --- | --- |
|  | < 50 nM | < 50 nM |  | < 50 nM | C=CC(=O)N1CCC(c2c[nH]c3ncnc(Nc4ccc(O[C@H](C)c5cscn5)c(Cl)c4)c23)CC1 [Compound 218, (R)-1-(4-(4-((3-chloro-4-(1-(thiazol-4-yl)ethoxy)phenyl)amino)-7H-pyrrolo[2,3-d]pyrimidin-5-yl)piperidin-1-yl)prop-2-en-1-one] |  |  |
|  | < 50 nM | < 50 nM |  | < 50 nM | C=CC(=O)N1CCC(c2c[nH]c3ncnc(Nc4ccc(OCc5ncsc5C)c(Cl)c4)c23)CC1 [Compound 219, 1-(4-(4-((3-chloro-4-((5-methylthiazol-4-yl)methoxy)phenyl)amino)-7H-pyrrolo[2,3-d]pyrimidin-5-yl)piperidin-1-yl)prop-2-en-1-one] |  |  |
|  | < 50 nM | < 50 nM |  | < 50 nM | C=CC(=O)N1CCC(c2c[nH]c3ncnc(Nc4ccc(OCc5ccccn5)c(Br)c4F)c23)CC1 [Compound 220, 1-[4-[4-[3-bromo-2-fluoro-4-(2-pyridylmethoxy)anilino]-7H-pyrrolo[2,3-d]pyrimidin-5-yl]-1-piperidyl]prop-2-en-1-one] |  |  |
|  | < 50 nM | < 50 nM |  | < 50 nM | C=CC(=O)N1CCC(c2c[nH]c3ncnc(Nc4cc(Cl)c(OCc5ccccn5)cc4F)c23)CC1 [Compound 221, 1-(4-(4-((5-chloro-2-fluoro-4-(pyridin-2-ylmethoxy)phenyl)amino)-7H-pyrrolo[2,3-d]pyrimidin-5-yl)piperidin-1-yl)prop-2-en-1-one] |  |  |
|  | < 50 nM | < 50 nM |  | < 50 nM | C=CC(=O)N1CCC(c2c[nH]c3ncnc(Nc4cc(Cl)c(OCc5ccccn5)cc4Cl)c23)CC1 [Compound 222, 1-[4-[4-[2,5-dichloro-4-(2-pyridylmethoxy)anilino]-7H-pyrrolo[2,3-d]pyrimidin-5-yl]-1-piperidyl]prop-2-en-1-one] |  |  |
|  | < 50 nM | < 50 nM |  | < 50 nM | C=CC(=O)N1CCC(c2c[nH]c3ncnc(Nc4ccc(OCc5ncc(F)s5)c(Cl)c4)c23)CC1 [Compound 223, 1-[4-[4-[3-chloro-4-[(5-fluorothiazol-2-yl)methoxy]anilino]-7H-pyrrolo[2,3-d]pyrimidin-5-yl]-1-piperidyl]prop-2-en-1-one] |  |  |
|  | < 50 nM | < 50 nM |  | < 50 nM | C=CC(=O)N1CCC(c2c[nH]c3ncnc(Nc4ccc5c(cnn5Cc5cccc(F)c5)c4)c23)CC1 [Compound 226, 1-(4-(4-((1-(3-fluorobenzyl)-1H-indazol-5-yl)amino)-7H-pyrrolo[2,3-d]pyrimidin-5-yl)piperidin-1-yl)prop-2-en-1-one] |  |  |
|  | < 50 nM | < 50 nM |  | < 50 nM | [2H]C([2H])(Oc1ccc(Nc2ncnc3[nH]cc(C4CCN(C(=O)C=C)CC4)c23)cc1Cl)c1ccccn1 [Compound 227, 1-(4-(4-((3-chloro-4-(pyridin-2-ylmethoxy-d2)phenyl)amino)-7H-pyrrolo[2,3-d]pyrimidin-5-yl)piperidin-1-yl)prop-2-en-1-one] |  |  |
|  | < 50 nM | < 50 nM |  | < 50 nM | C=CC(=O)N1CCC(c2c[nH]c3ncnc(Nc4ccc(OCc5cccc(F)c5)c(Cl)c4)c23)CC1 [Compound 228, 1-(4-(4-((3-chloro-4-((3-fluorobenzyl)oxy)phenyl)amino)-7H-pyrrolo[2,3-d]pyrimidin-5-yl)piperidin-1-yl)prop-2-en-1-one] |  |  |
